Patent US12161114B2, “Overpowered ABA receptor agonists” (The Regents of the University of California, priority 2018, dated 2024)

How the values were obtained:
[1] = test system: pyr1/pyl1, pyl8/pyl9 and abi1C mutants; experiment: seed germination on receptor mutants and ABA signalling mutant abi1C; type: in vivo, Arabidopsis; conditions: tested at twice the EC50
Description: Prior to selecting a scaffold for optimization we conducted Arabidopsis seed germination assays to establish if the hits obtained are activity in vivo. Germination experiments were performed with surface sterilized wild type Columbia Arabidopsis thaliana seeds and abi1C (the abi1-1 allele isolated in the Columbia ecotype) plated onto 0.7% agar medium containing 1/2-x MS salts, 0.5% sucrose and differing concentrations of the test compounds. After 4d of stratification at 4° C., the plates were transferred to a growth chamber under continuous illumination and evaluated after 4 days.
Methods similar to example 3 were followed.

PYR1 = target: T1, PYR1 (Arabidopsis thaliana, UniProt O49686); experiment: receptor-mediated PP2C inhibition assay, fluorescence based, PYR1; type: biochemical
T1 construct: made in house
T1 sequence (O49686 1-191): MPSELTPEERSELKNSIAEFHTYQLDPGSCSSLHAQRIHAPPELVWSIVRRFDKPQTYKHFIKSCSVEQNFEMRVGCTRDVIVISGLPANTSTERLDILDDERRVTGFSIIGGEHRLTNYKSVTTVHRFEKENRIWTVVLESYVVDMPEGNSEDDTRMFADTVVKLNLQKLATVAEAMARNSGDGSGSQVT
T1 sequence (Q9CAJ0 180-511 partner limits assumed): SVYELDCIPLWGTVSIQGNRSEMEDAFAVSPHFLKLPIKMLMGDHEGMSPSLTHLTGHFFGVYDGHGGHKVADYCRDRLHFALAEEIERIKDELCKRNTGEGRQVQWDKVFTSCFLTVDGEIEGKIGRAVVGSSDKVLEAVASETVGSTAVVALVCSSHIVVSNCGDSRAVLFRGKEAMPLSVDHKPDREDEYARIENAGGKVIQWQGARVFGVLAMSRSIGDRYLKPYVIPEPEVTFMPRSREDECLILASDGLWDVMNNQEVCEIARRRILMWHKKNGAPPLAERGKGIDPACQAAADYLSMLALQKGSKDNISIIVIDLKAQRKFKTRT
Description: Each ligand was tested at concentrations spanning 7 points between 4 nM and 50 μM in triplicate in a reaction buffer containing 100 mM Tris-HCl-pH7.9, 100 mM NaCl, 30 μg/ml BSA, 0.1% 2-mercaptoethanol, 25 nM ΔN-HAB1, 1 mM 4-methylumbelliferyl phosphate, and different recombinant ABA receptors at 50 nM or 300 nM (for PYL9 or PYL11). The substrate was added ˜20 minutes after the other components had been mixed and fluorescence data collected. Control carrier solvent-only wells were included as a reference and %-activity for tested compounds calculated relative to this control. The dose response data (PP2C activity versus agonist concentration) was fit to a log (inhibitor) vs. response-(variable slope) model using non-linear regression to infer the IC50S, using GraphPad Prism 6.0, to yield the IC50 values shown in FIG. 6.
The potency and selectivity of ligands 2b, 2e-f was established by testing their ability to activate multiple ABA receptor subtypes using the fluorescence based phosphasted assay as outlined in example 2 at a range of concentrations (4 nM to 50 μM). […]
We first explored if replacing the cyclopropyl group with an isopropyl group affects the activity of the ligand against PYR1. Ligands were tested using the fluorescence based PP2C assay described in example 2.

[2] = test system: Arabidopsis pMAPKKK18-Luc+ reporter strain seedlings; experiment: ABA reporter gene luminescence assay; type: in vivo; conditions: 25 μM, 6-hours post-treatment
Description: Liquid grown Arabidopsis […]18-Luc+ reporter strain seedlings were treated with 25 μM test compounds or a mock control and 100 μM luciferin. Luminescence images were captured 6-hours post-treatment.

Structure (SMILES): N#Cc1c(C2CC2)cc(CC(=O)NC2(C(=O)O)CCCCC2)cc1C1CC1 [2f, 1-[2-(4-cyano-3,5-dicyclopropylphenyl)acetamido]cyclohexane-1-carboxylic acid]
- effect on germination in receptor mutant backgrounds [1]: only show diminished activity in the pyr1/pyl1 mutant
- increased potency on PYR1 relative to ABA (PYR1): ~10 ×
- induction of ABA-transcriptional responses (luminescence) [2]: effective inducer of ABA-transcriptional responses
